In ChEMBL document CHEMBL4421719, “Modulation of k2p channels” (2016) one finds Emax and T1/2 data, which are given here for one compound.

Format in all cases: cell-based
Test [1] deals with T1, Potassium channel subfamily K member 18 (Homo sapiens) (UniProt Q7Z418).
T1 sequence (whole entry): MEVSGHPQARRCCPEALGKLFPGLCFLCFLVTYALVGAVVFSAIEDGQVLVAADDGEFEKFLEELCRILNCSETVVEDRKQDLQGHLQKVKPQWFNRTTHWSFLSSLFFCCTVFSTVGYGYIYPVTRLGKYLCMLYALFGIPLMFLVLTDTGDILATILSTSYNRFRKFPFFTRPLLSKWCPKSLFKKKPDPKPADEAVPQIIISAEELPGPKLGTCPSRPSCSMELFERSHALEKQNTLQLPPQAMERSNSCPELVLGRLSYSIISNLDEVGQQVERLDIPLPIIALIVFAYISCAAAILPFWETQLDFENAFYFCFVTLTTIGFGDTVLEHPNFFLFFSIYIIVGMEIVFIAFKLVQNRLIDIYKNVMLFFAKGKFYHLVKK
The experiment in a line: Activation of K2P18.1 (unknown origin) expressed in Xenopus oocytes assessed as effect on channel currents at -80 mV holding potential at 100 uM by two-electrode voltage clamp assay relative to control.

Test [2] concerns the target T2, Potassium channel subfamily K member 10 (Homo sapiens) (UniProt P57789).
T2 sequence (whole entry): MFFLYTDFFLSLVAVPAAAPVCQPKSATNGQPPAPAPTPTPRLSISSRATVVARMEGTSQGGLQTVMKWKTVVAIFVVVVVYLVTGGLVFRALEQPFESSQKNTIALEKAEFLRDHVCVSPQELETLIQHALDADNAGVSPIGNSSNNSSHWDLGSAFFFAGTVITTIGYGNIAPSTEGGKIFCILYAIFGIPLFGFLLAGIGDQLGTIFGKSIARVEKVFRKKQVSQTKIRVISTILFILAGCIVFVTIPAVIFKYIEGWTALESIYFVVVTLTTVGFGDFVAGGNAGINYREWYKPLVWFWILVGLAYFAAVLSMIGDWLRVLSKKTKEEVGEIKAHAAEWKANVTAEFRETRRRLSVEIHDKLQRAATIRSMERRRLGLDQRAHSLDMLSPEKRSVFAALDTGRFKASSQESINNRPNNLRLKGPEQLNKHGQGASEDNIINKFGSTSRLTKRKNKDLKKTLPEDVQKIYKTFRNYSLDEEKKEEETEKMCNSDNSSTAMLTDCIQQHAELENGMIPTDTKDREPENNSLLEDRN
The experiment in a line: Activation of K2P10.1 (unknown origin) expressed in Xenopus oocytes assessed as effect on channel currents at -80 mV holding potential by two-electrode voltage clamp assay relative to control.

The target of test [3] is T3, Potassium channel subfamily K member 2 (Homo sapiens) (UniProt O95069).
T3 sequence (whole entry): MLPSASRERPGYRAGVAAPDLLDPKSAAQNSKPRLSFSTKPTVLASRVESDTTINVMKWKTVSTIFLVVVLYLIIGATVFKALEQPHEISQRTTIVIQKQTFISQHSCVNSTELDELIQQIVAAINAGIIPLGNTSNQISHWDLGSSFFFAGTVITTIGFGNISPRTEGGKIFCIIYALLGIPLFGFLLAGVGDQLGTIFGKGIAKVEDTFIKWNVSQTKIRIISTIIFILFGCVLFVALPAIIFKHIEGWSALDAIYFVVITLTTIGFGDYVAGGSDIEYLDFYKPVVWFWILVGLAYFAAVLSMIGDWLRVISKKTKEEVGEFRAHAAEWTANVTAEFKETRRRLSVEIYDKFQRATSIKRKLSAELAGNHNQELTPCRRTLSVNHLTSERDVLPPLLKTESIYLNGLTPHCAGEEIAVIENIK
The experiment in a line: Activation of K2P2.1 (unknown origin) expressed in whole HEK293T cells in assessed as effect on channel currents by measuring time of half-maximal activation at 20 uM by two-electrode voltage clamp assay relative to control.

Test [4] has as its target T3, Potassium channel subfamily K member 2 (Homo sapiens). Description: Activation of K2P2.1 (unknown origin) expressed in HEK293T cell membranes in inside-out patch configuration assessed as effect on channel currents by measuring time of half-maximal activation at 20 uM by two-electrode voltage clamp assay relative to control.
The target in test [5] is Potassium channel subfamily K member 9 (Homo sapiens) (UniProt Q9NPC2). The experiment in a line: Activation of K2P9.1 (unknown origin) expressed in Xenopus oocytes assessed as effect on channel currents at 150 uM at -80 mV holding potential by two-electrode voltage clamp assay relative to control.
Chain of Potassium channel subfamily K member 9 (Homo sapiens) (Q9NPC2 whole entry): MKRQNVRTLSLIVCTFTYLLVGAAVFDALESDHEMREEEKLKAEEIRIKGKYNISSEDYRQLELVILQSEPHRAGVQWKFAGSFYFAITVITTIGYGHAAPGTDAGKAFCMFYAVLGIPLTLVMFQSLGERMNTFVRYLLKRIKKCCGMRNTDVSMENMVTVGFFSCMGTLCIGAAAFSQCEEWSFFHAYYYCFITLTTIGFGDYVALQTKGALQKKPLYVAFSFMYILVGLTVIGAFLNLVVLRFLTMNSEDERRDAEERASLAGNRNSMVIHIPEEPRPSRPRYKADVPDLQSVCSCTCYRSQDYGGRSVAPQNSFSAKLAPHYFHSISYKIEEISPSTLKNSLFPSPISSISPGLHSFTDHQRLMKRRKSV
In test [6] the test system is Potassium channel subfamily K member 2 (Homo sapiens), O95069 [UNDEFINED MUTATION]. The experiment in a line: Activation of K2P2.1 G137I mutant (unknown origin) expressed in Xenopus oocytes assessed as effect on channel currents at 150 uM at -80 mV holding potential by two-electrode voltage clamp assay relative to control.

On to `CC1(C)c2cc(Cl)ccc2N(CCc2nnn[nH]2)c2ccc(Cl)cc21`, for which the Emax came out at 0.9% in test [1], 11.4 in test [2], 2.1 in test [5] and 0.9 in test [6]. For the same compound, the T1/2 in test [3] came out at 4.1 s; in test [4], 10.8 s.
